Literature values, collected in article PMC12655172, “Borylated 5-Membered Ring Iminosugars: Synthesis and Biological Evaluation for Glycosidase Inhibition and Anticancer Properties for Application in Boron Neutron Capture Therapy (BNCT)—Part 2” (Pharmaceuticals, 2025).

What was measured:
β-glucosidase (almond) = target: β-glucosidase (almond); parameters: method as in PMID 33228403; settings: cited from earlier work
amyloglucosidase = settings: read-out: IC50 amyloglucosidase; cited from earlier work
[1] = tested on: β-D-galactosidase (E. coli); settings: cited from earlier work
[2] = tested on: α-D-galactosidase (coffee bean); settings: cited from earlier work
[3] = tested on: T1, α-D-mannosidase (Jack bean); settings: cited from earlier work
T1 construct: purchased Sigma-Aldrich; host or cells: Jack bean

α-L-fucosidase = tested on: α-L-fucosidase; parameters: method as in PMID 2706004; settings: cited from earlier work
[4] = target: α-glucosidase (endoplasmatic reticulum II); parameters: method as in PMID 19294724; settings: cited from earlier work
[5] = target: α-glucosidase (endoplasmatic reticulum I); parameters: method as in PMID 19294724; settings: cited from earlier work
α-D-glucosidase = target: α-D-glucosidase; parameters: method as in PMID 31557624; settings: cited from earlier work
[6] = tested on: α-D-mannosidase (neutral); parameters: method as in PMID 8457203; settings: cited from earlier work
[7] = tested on: α-D-mannosidase (Golgi II); parameters: method as in PMID 8457203; settings: cited from earlier work
[8] = target: α-D-mannosidase (fruit fly lysosomal acidic); parameters: method as in PMID 29323461; settings: cited from earlier work
[9] = tested on: α-D-mannosidase (lysosomal acidic); parameters: method as in PMID 8457203; settings: cited from earlier work
[10] = target: α-D-mannosidase (fruit fly Golgi II); parameters: method as in PMID 29323461; settings: cited from earlier work
[11] = target: T2, β-D-glucosidase (bovine liver) (Bos taurus, UniProt F1MNT6); parameters: method as in PMID 41011173; settings: cited from earlier work
T2 sequence (F1MNT6 1-469): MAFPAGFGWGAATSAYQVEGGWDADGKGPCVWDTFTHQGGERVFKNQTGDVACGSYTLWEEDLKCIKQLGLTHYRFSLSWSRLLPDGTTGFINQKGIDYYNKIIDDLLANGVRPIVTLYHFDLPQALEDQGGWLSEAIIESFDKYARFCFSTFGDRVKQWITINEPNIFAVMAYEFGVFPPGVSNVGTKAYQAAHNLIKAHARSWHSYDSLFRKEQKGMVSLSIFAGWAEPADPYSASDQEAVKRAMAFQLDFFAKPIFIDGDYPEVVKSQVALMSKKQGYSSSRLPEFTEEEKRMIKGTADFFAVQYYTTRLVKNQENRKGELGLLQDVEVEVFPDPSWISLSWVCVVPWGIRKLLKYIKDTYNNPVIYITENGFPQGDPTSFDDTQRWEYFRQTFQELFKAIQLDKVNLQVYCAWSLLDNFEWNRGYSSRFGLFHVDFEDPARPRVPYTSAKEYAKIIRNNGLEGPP

β-D-glucosidase (almond) [12] = tested on: β-D-glucosidase (almond); parameters: method as in PMID 41011173; settings: cited from earlier work
β-D-glucosidase (almond) [13] = tested on: β-D-glucosidase (almond); parameters: method as in PMID 41011173; settings: Table 3 type assay; cited from earlier work

OC[C@H]1NC[C@H](O)[C@@H](O)[C@@H]1O [1-DNJ]
IC50 (amyloglucosidase): 2.1 µM

Cl.OC[C@@H](O)[C@H]1[C@H](O)[C@H](O)CN1Cc1ccccc1B(O)O [N-(2-Methylphenylboronic acid)-1,4-dideoxy-1,4-imino-D-talitol.HCl]
inhibition β-D-galactosidase (E. coli) [1]: β-D-Galactosidase (E. coli) (44–55%)
inhibition α-D-galactosidase (coffee bean) [2]: < 5%
inhibition α-D-mannosidase (Jack bean) [3]: 10%

OC[C@@H](O)[C@@H]1[C@@H](O)[C@@H](O)CN1Cc1ccccc1 [N-Benzyl-1,4-dideoxy-1,4-imino-D-allitol]
inhibition α-L-fucosidase (α-L-fucosidase): α-L-Fucosidase (76%)

Cl.OC[C@@H](O)[C@H]1[C@H](O)[C@H](O)CN1Cc1ccccc1 [N-Benzyl-1,4-dideoxy-1,4-imino-D-talitol.HCl]
inhibition β-D-galactosidase (E. coli) [1]: poorly inhibited
inhibition α-D-galactosidase (coffee bean) [2]: poorly inhibited
inhibition α-D-mannosidase (Jack bean) [3]: poorly inhibited

CCCCN1C[C@H](O)[C@@H](O)[C@H](O)[C@H]1CO [N-Butyl-DNJ]
IC50 [4]: 10.8 µM
IC50 [5]: 0.68 µM

OC[C@@H](O)[C@H]1[C@H](O)[C@@H](O)CN1Cc1ccccc1 [N-benzyl-1,4-dideoxy-1,4-imino-D-galactitol]
IC50 (α-D-glucosidase): 40.6 µM
inhibition α-D-glucosidase (α-D-glucosidase): 93.2%

Cl.OC[C@@H](O)[C@@H]1[C@H](O)[C@H](O)CN1Cc1ccccc1 [N-benzyl-1,4-dideoxy-1,4-imino-D-mannitol.HCl]
inhibition α-D-mannosidase neutral [6]: 44%
inhibition α-D-mannosidase Golgi II [7]: 72%
IC50 [8]: 1500 µM
inhibition α-D-mannosidase lysosomal acidic [9]: 34%
IC50 [10]: 690 µM

OB(O)c1ccc(CN2C[C@@H](O)[C@H]3OC(O)[C@H](O)[C@H]32)cc1 (stereo partly drawn) [para 7, N-(4-methylphenylboronic acid)-3,6-dideoxy-3,6-imino-D-gulofuranose]
inhibition % β-D-Glucosidase Bovine Liver [11]: 38.8%
inhibition % β-D-Glucosidase Almond (β-D-glucosidase (almond) [12]): 43.6%
Percentage inhibition β-D-Glucosidase Almond (β-D-glucosidase (almond) [13]): 68.1%
